Common to all, as to assay: Bead competition binding assay, immobilized compound A, K-562, HL-60 and Jurkat nuclear lysates
Holding throughout (conditions): 100 µM free compound A, read-out: Fold change versus DMSO control

In one test the target is T1, EGLN2 (Homo sapiens, UniProt Q96KS0).
T1 construct: capturing and identification of dioxygenases from nuclear lysates of three different cell lines; endogenous in cells; host or cells: K-562, HL-60 and Jurkat nuclear lysates
An excerpt:
(§1) K562 cells were also purchased from DSMZ (Braunschweig, Germany).
(§2) Table 5: Peptide elution off the LC system
(§3) Seventeen different dioxygenases were identified.

Another test has as its target T2, PLOD2 (Homo sapiens, UniProt O00469).
T2 construct: capturing and identification of dioxygenases from nuclear lysates of three different cell lines; endogenous in cells; host or cells: K-562, HL-60 and Jurkat nuclear lysates
T2 sequence (O00469 26-737): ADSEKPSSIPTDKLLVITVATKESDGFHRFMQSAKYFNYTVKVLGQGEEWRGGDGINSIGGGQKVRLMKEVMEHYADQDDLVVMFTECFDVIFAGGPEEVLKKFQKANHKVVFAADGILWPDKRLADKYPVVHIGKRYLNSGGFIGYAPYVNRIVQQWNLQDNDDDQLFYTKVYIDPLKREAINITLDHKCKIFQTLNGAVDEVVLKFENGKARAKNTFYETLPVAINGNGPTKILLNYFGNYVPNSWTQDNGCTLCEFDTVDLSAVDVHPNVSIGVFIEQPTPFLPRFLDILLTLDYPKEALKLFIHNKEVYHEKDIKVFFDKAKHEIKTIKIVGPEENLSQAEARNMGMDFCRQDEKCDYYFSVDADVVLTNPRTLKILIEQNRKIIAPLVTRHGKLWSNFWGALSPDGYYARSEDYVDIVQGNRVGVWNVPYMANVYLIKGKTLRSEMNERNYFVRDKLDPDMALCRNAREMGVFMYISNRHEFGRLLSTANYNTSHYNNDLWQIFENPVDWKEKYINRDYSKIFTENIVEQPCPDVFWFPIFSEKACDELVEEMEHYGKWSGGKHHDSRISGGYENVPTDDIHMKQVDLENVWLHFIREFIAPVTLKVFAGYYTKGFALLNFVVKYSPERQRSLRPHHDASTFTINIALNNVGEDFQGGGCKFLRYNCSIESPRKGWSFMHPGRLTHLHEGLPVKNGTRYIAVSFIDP
Text: as §1, §2, §3

Another test addresses T3, TMLHE (Homo sapiens, UniProt Q9NVH6).
T3 construct: capturing and identification of dioxygenases from nuclear lysates of three different cell lines; endogenous in cells; host or cells: K-562, HL-60 and Jurkat nuclear lysates
T3 sequence (Q9NVH6 16-421): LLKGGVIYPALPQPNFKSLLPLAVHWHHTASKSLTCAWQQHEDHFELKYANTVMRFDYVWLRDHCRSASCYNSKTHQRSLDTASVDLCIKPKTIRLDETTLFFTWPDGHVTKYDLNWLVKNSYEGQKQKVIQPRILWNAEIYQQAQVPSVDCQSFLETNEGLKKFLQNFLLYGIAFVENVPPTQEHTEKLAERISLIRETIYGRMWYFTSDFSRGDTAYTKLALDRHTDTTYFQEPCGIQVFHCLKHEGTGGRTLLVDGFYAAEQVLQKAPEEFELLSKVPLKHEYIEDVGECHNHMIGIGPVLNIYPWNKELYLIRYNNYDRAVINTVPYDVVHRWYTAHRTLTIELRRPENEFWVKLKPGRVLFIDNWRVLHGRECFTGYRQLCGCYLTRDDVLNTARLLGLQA
Text: as §1, §2, §3

The target of a further test is T4, PLOD3 (Homo sapiens, UniProt O60568).
T4 construct: capturing and identification of dioxygenases from nuclear protein extracts; endogenous in cells
T4 sequence (O60568 25-738): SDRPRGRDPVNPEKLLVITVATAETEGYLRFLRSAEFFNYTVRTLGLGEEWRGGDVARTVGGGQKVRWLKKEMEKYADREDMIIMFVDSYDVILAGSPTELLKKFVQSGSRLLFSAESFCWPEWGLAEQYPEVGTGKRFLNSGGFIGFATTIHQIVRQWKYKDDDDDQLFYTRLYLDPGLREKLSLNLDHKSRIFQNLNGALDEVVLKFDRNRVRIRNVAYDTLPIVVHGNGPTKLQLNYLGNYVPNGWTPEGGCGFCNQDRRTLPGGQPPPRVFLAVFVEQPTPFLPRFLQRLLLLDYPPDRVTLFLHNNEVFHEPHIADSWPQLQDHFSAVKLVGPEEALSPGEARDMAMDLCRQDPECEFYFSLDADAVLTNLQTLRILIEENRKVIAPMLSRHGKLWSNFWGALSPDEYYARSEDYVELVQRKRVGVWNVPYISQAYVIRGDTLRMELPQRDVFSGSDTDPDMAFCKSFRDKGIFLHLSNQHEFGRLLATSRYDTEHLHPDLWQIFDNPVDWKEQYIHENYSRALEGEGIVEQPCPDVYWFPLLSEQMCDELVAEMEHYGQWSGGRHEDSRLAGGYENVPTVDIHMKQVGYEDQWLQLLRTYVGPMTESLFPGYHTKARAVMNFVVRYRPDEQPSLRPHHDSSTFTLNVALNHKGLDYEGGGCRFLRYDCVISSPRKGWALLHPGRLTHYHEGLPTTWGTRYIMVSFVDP
Text: as §1, §2

The target of a further test is T5, ALKBH3 (Homo sapiens, UniProt Q96Q83).
T5 construct: capturing and identification of dioxygenases from nuclear protein extracts; endogenous in cells
T5 sequence (Q96Q83 1-286): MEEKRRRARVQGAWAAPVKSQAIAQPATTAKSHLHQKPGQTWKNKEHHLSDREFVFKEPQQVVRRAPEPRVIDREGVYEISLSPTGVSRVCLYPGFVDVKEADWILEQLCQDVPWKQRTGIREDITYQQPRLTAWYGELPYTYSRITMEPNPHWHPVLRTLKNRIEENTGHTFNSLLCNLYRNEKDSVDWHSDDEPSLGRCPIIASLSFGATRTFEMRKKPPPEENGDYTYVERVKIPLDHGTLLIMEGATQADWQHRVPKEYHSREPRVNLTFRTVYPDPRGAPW
Text: as §1, §2

The structures appear in SMILES notation. Where a name gives a salt, the structure may show the parent alone. Read-outs that look alike come from different tables or passages of the source.

These results are taken from EP2505659A1, “Methods for the identification of dioxygenase interacting molecules and for the purification of dioxygenase proteins” (CELLZOME AG, priority 2011, dated 2012).

T1 sequence (Q96KS0 whole entry): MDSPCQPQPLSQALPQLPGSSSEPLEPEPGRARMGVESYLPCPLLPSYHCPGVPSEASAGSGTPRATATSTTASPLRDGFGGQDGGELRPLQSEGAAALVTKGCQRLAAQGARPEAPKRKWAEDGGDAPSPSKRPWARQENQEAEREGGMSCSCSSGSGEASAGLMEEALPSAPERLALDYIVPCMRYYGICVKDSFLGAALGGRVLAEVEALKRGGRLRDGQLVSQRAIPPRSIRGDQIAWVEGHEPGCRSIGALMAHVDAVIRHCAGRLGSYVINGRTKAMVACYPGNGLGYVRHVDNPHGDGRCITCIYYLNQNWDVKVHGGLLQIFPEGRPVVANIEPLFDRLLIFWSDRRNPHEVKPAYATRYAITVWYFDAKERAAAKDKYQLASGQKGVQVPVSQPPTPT

For the molecule `O=C(O)CNC(=O)C1C(=O)OC2(CCNCC2)OC1=O` [compound A, 2-(2,4-dioxo-1,5-dioxa-9-azaspiro[5.5]undecane-3-carboxamido)acetic acid hydrochloride], the remaining binding at 100 µM on EGLN2 (HL-60 nuclear lysate) was 124%; on EGLN2 (Jurkat nuclear lysate), 123%; at EGLN2 (K-562 nuclear lysate), 75%; at PLOD2 (HL-60 nuclear lysate), 86%; at PLOD2 (Jurkat nuclear lysate) it was 109%; on PLOD2 (K-562 nuclear lysate), 54%. The remaining binding at 100 µM was 104% on TMLHE (HL-60 nuclear lysate); 49% at TMLHE (Jurkat nuclear lysate); 50% on TMLHE (K-562 nuclear lysate); 161% on PLOD3 (Jurkat nuclear lysate); 52% at PLOD3 (K-562 nuclear lysate); 36% at ALKBH3 (HL-60 nuclear lysate). Besides, the remaining binding at 100 µM at ALKBH3 (Jurkat nuclear lysate) is 32%.
